Consider 105 compounds from PubChem BioAssay AID1996.

In brackets after ≈: the same amount, converted by molar mass.

The conditions of the series: buffer; pH 7.4; 200.0 µM.
One may read the solubility (kinetic) as solubility judged after dilution from a stock solution rather than from solid. The compound `COc1ccccc1NCc1cc(=O)oc2c(C)c(O)ccc12` showed a solubility (kinetic) of 4.4 µg/mL (≈ 14.1 µM).

For the compound `Cc1ccc(N/C=C(\C#N)S(=O)(=O)c2ccccc2)cc1`, the solubility (kinetic) is 0.7 µg/mL (≈ 2.35 µM). The result for `O=c1[nH]cnc2c1C(c1ccc(Cl)cc1)c1c(nc[nH]c1=O)O2` reads 43.5 µg/mL (≈ 132 µM); that for `CCOc1cccc(C2C(C(=O)c3ccc(C)o3)=C(O)C(=O)N2Cc2ccccc2)c1` (stereo not given), 62.5 µg/mL (≈ 150 µM); that for `COc1ccc(OC)c([N+](=O)[O-])c1C(N)=O`, greater than 33.9 µg/mL. Consider `Cc1ccc([N+](=O)[O-])cc1NC(=O)Cc1ccc(F)cc1`, for which the kinetic solubility is less than 0.3 µg/mL. In the case of `C=CCNc1nc(N)c([N+](=O)[O-])c(NCc2ccccc2)n1` it was 0.7 µg/mL (≈ 2.33 µM). As to `O=c1c2ccccc2ncn1Cc1ccc2c(c1)OCO2`, the kinetic solubility amounted to 15.1 µg/mL (≈ 53.9 µM). Compound `Cc1ccc(NC(=O)C(C)Sc2nnc3ccccn23)cc1` (stereo not given) came in with a solubility (kinetic) greater than 46.9 µg/mL. The result for `CC1=C(C)C(C)=C(C#N)C(=C(C#N)C#N)N1` reads greater than 31.5 µg/mL; that for `Cc1cccc(C(=O)NCC(c2ccco2)N2CCc3ccccc32)c1` (stereo not given), 8.2 µg/mL (≈ 23.7 µM).

As for `CCCC(=O)Nc1cc(OC)c(C(=O)OC)cc1Cl`, the solubility (kinetic) is greater than 42.9 µg/mL. Turning to `CN(Cc1cccc(F)c1)CC(O)COCc1ccccc1Cl` (stereo not given), the kinetic solubility is 44.9 µg/mL (≈ 133 µM). The result for `Cc1ccc(/C(O)=C/c2nc3cc(C)ccc3oc2=O)cc1` reads 12 µg/mL (≈ 40.9 µM); that for `CCOc1cc(N2CCOCC2)c(OCC)cc1NC(=O)Cn1cnnn1`, greater than 56.5 µg/mL; that for `Cc1cc(C)c(OCCCn2ccnc2)c(C)c1`, 27.2 µg/mL (≈ 111 µM). Compound `CC(C(=O)N1CCN=C1c1ccccc1)N1C(=O)c2ccccc2C1=O` (stereo not given) gave a kinetic solubility greater than 52.1 µg/mL. The compound `CN(C)S(=O)(=O)c1ccc(C(=O)NC(=O)CSc2nncs2)cc1` had a kinetic solubility greater than 58 µg/mL. `Cn1c(Nc2ccccc2)nc2ccccc21` yielded a solubility (kinetic) of 25.9 µg/mL (≈ 116 µM). The result for `CCOc1ccc(CCNC(=O)COC(=O)/C=C/c2ccco2)cc1OCC` reads 39.5 µg/mL (≈ 102 µM). In the case of `CC1(C)C(=O)Nc2ccccc2N1C(=O)CSc1ncccn1` it was greater than 49.3 µg/mL; in that of `COc1cccc(N2CCN(C(=S)Nc3ccccc3)CC2)c1`, 2.9 µg/mL (≈ 8.86 µM); in that of `CC1(C)C(=O)OC(/C=C/c2cccc([N+](=O)[O-])c2)C(C)(C)C1=O` (stereo not given), 2.7 µg/mL (≈ 8.51 µM). The compound `COc1ccc(Cl)cc1NC(=O)CNc1ccccc1N1CCOCC1` had a kinetic solubility of less than 0.3 µg/mL. Consider `CCc1cccc(C)c1NC(=O)CC(C)(C)CC(=O)O`, for which the solubility (kinetic) was greater than 41.6 µg/mL. The result for `COc1ccc(S(=O)(=O)Nc2ccc(Cl)cn2)cc1` reads 14.4 µg/mL (≈ 48.2 µM); that for `COc1ccc2[nH]c(C(=O)Nc3ccccc3Cl)cc2c1`, less than 0.3 µg/mL; that for `NS(=O)(=O)c1ccc(NC(=O)c2cc(=O)c3ccccc3o2)cc1`, 18.7 µg/mL (≈ 54.3 µM).

`Cc1ccc(C(=O)N2CCCc3ccccc32)c(F)c1F` gave a kinetic solubility of 17.2 µg/mL (≈ 59.9 µM). The result for `COc1nc(OCC#N)nc(N2CCCCC2)n1` reads 31.6 µg/mL (≈ 127 µM); that for `COc1ccc(CNC(=O)c2cc(=O)c3c(C)cc(C)cc3o2)cc1`, less than 0.7 µg/mL; that for `O=C(NC1CC1)C1CCN(C(=O)c2ccc(Cl)cc2)CC1`, 45.8 µg/mL (≈ 149 µM).

Compound `CC1CCCN(C2(O)C(=O)Nc3ccc(Br)cc32)C1` (stereo not given) returned a solubility (kinetic) greater than 48.8 µg/mL. The compound `CN1C(=O)/C(=C\c2ccco2)N=C1c1ccc(Cl)cc1Cl` showed a solubility (kinetic) of 33 µg/mL (≈ 103 µM). Compound `COc1ccc(NC(=S)NC2CCCCC2)cn1` displayed a kinetic solubility greater than 39.8 µg/mL. In the case of `N/C(=N\OCC(=O)Nc1ccc(F)c(Cl)c1)c1ccccc1` it was greater than 48.3 µg/mL; in that of `CCN(/C(N)=N/c1nc(C)cc(C)n1)c1ccccc1`, greater than 40.4 µg/mL. Compound `CN(Cc1cn(C)nc1-c1ccccc1F)Cc1nccn1C` registered a solubility (kinetic) greater than 47 µg/mL. `COc1cccc(C(=O)Nc2cccnc2)c1OC` registered a kinetic solubility greater than 38.7 µg/mL. As for `O=C(NCc1ccccn1)Nc1ccccc1`, the kinetic solubility is greater than 34.1 µg/mL. The result for `COCC(=O)Nc1ccc(OC)c(Cl)c1` reads 33.8 µg/mL (≈ 147 µM).

`NC(=O)/C=C/C(=O)Nc1ccc(Cl)cc1` had a kinetic solubility greater than 33.7 µg/mL. The result for `O=C(COC(=O)CC1CCCC1)Nc1cccc(F)c1` reads greater than 41.9 µg/mL; that for `Cc1cccc(NC(=O)c2cc([N+](=O)[O-])ccc2N2CCCCC2)n1`, 0.4 µg/mL (≈ 1.18 µM); that for `CCCN(CC(=O)Nc1ccccc1OC)C(=O)CC1CCCC1`, greater than 49.9 µg/mL.

In turn, `C/C(=C\c1ccc(F)cc1)C(=O)c1c(C)cc(C)[nH]c1=O` showed a kinetic solubility of 35.6 µg/mL (≈ 125 µM). The result for `COc1nc(C)cc(C)c1S(=O)(=O)c1ccccc1C` reads 4.8 µg/mL (≈ 16.5 µM). The result for `O=C(CN1c2cccc3cccc(c23)S1(=O)=O)N1CCN(c2ccccc2)CC1` reads 3.4 µg/mL (≈ 8.34 µM).

On to `Cc1noc(/C=C/c2cccnc2)c1[N+](=O)[O-]`, for which the kinetic solubility is 33.7 µg/mL (≈ 146 µM). In the case of `Cn1ccsc1=NC(=O)c1ccc(=O)[nH]c1` it was 30.6 µg/mL (≈ 130 µM). In turn, `CCNC(=S)NNC(=O)CC(C)C` gave a solubility (kinetic) greater than 30.5 µg/mL. Compound `CC1CCCCN1CC(O)COCc1ccc(Cl)cc1` (stereo not given) returned a solubility (kinetic) of 29.1 µg/mL (≈ 97.7 µM). The result for `Cc1ccc(O)c(C(=O)c2cnc(/N=C(\N)N(C)C)nc2)c1` reads 41.1 µg/mL (≈ 137 µM); that for `CSc1nc(N2CCN(C)CC2)c2c(c1C#N)CC(C)(C)OC2`, greater than 49.9 µg/mL. `Cc1cc(Br)ccc1NC(=S)NC1CCCC1` came in with a solubility (kinetic) of 19.1 µg/mL (≈ 61 µM).

The compound `COc1ccc(C(CNS(=O)(=O)c2ccc(NC(C)=O)c(OC)c2)N2CCCC2)cc1.Cl` (stereo not given) came in with a kinetic solubility greater than 72.6 µg/mL. `COc1ccc(NC(=O)c2cnc(SC)nc2C)c(OC)c1` came in with a kinetic solubility greater than 47.9 µg/mL. As for `CC1(C)c2cc(Cl)ccc2-n2c1cc(O)c(-c1ccccc1)c2=O`, the solubility (kinetic) came to 47.8 µg/mL (≈ 142 µM). Consider `Cc1cc(=O)[nH]c2ccc(S(=O)(=O)Nc3ccccc3)cc12`, for which the kinetic solubility amounted to 3.4 µg/mL (≈ 10.8 µM).

With `CC(C(=O)NCC1CCCCC1)N(C)Cc1ccc(Cl)cc1` (stereo not given), the solubility (kinetic) turned out to be 19.5 µg/mL (≈ 60.4 µM). In the case of `CN(C1CCS(=O)(=O)C1)S(=O)(=O)c1ccc2ccccc2c1` (stereo not given) it was 9.2 µg/mL (≈ 27.1 µM); in that of `CC(=O)Nc1ccc(OC(=O)N(C)c2ccc(C)cc2)cc1`, greater than 44.8 µg/mL; in that of `CN(C)C(=O)COc1ccc2c3c(c(=O)oc2c1)CCCC3`, 44.6 µg/mL (≈ 148 µM). `COc1ccc(C(=O)NCC(=O)NCc2ccncc2)cc1`: the solubility (kinetic) is greater than 44.9 µg/mL.

With `COc1ccc(CCNc2nc(C)cc(C)n2)cc1OC.Cl`, the solubility (kinetic) is greater than 48.6 µg/mL.

Compound `CCCCc1cc(C)c(S(=O)(=O)c2ccccc2C)c(=O)[nH]1` returned a solubility (kinetic) of 3.8 µg/mL (≈ 11.9 µM). The result for `Nc1cc(Cl)ccc1C(=O)OCC(=O)NCC1CCCO1` (stereo not given) reads greater than 46.9 µg/mL; that for `COc1ccc(Br)cc1C(=O)Nc1cccc2ncccc12`, 1.7 µg/mL (≈ 4.76 µM). `COc1nccc(C(F)(F)F)c1C(=O)NC(=O)Nc1ccccc1` returned a solubility (kinetic) of 11.5 µg/mL (≈ 33.9 µM).

In the case of `Cc1nccn1CC(O)COc1ccc(Cl)cc1Cl` (stereo not given), the solubility (kinetic) is greater than 45.2 µg/mL. On to `O=C(OCc1cncs1)c1cccs1`, for which the kinetic solubility was greater than 33.8 µg/mL. In the case of `Cc1ccccc1C(=O)NNC(=O)c1cccn1C` it was greater than 38.6 µg/mL. For the compound `CN1CCN(/N=C/c2c[nH]c3ccccc23)CC1`, the solubility (kinetic) was greater than 36.3 µg/mL.

The compound `O=c1[nH]c2ccccc2nc1Cc1ccc([N+](=O)[O-])cc1` returned a solubility (kinetic) of 3.6 µg/mL (≈ 12.8 µM). Turning to `C[n+]1ccn(CC(=O)c2cccs2)c1.[Br-]`, the kinetic solubility was determined as 39 µg/mL. The result for `CC(=O)Nc1ccc2c(c1)nc(CCN1CCN(c3ccccn3)CC1)n2C` reads less than 0.1 µg/mL; that for `c1ccc(-n2ccnc2)cc1`, 19.7 µg/mL (≈ 137 µM). On to `CN1C(c2ccccc2)CC(=NO)CC1c1ccccc1` (stereo not given), for which the kinetic solubility came to 1.4 µg/mL (≈ 4.99 µM).

In the case of `O=C(Nc1ccccc1Oc1ccccc1)c1cccs1`, the kinetic solubility came out at 15.2 µg/mL (≈ 51.5 µM).

Compound `Cc1ccc(NC(=O)C2Oc3ccccc3OC2C)cc1` (stereo not given) returned a kinetic solubility of 28 µg/mL (≈ 98.8 µM). In the case of `Nc1ccc(OCCc2ccccc2)cc1` it was 28.3 µg/mL (≈ 133 µM); in that of `O=C(COC(=O)/C=C/c1ccc(F)cc1)NC1CCCCCC1`, 3.7 µg/mL (≈ 11.6 µM). In turn, `CCc1ccc(NC(=O)COc2ccc3c(c2)OCO3)cc1` gave a kinetic solubility of 4.8 µg/mL (≈ 16 µM). The compound `O=C(CSc1ccccc1)N1CCN(C(=O)c2ccco2)CC1` showed a kinetic solubility greater than 49.6 µg/mL. The result for `COc1cc(N(C)C)c([N+](=O)[O-])cc1C(=O)N1CCOCC1` reads greater than 46.4 µg/mL. `CC1NCCC2(O)CCCCC12` (stereo not given) displayed a solubility (kinetic) greater than 25.4 µg/mL. The result for `COc1cccc(OC)c1C(=O)N1CCNCC1.O=C(O)C(=O)O` reads 49.7 µg/mL. The result for `O=C1CC(N2CCc3ccccc32)C(=O)N1c1ccc(F)cc1` (stereo not given) reads greater than 46.5 µg/mL; that for `Cc1ccsc1C(=O)Nc1nc2ccccc2[nH]1`, 2 µg/mL (≈ 7.77 µM); that for `Nc1cc(=O)[nH]c(SCC(=O)NC2CCCCCCC2)n1`, greater than 46.6 µg/mL. Consider `COc1ccc2[nH]cc(C(=O)CN3CC(C)CC(C)C3)c2c1` (stereo not given), for which the solubility (kinetic) was greater than 45.1 µg/mL. The result for `COc1ccccc1C(=O)NCCC(=O)Nc1cccc(C)n1` reads greater than 47 µg/mL; that for `N#Cc1ccccc1COC(=O)CCC(=O)c1cccs1`, greater than 44.9 µg/mL; that for `O=C(O)/C=C/C(=O)Nc1ccc2c(c1)C(=O)c1ccccc1C2=O`, greater than 48.2 µg/mL. In the case of `CC(NC(=O)C1=CC=CN2CCS(=O)(=O)N=C12)c1ccc(Cl)c(Cl)c1` (stereo not given) it was greater than 60 µg/mL. The result for `CCCCn1c(N)c(N(CC)C(=O)c2ccccc2C)c(=O)[nH]c1=O` reads 49.5 µg/mL (≈ 144 µM). `O=C(/C=C/c1ccc2c(c1)OCO2)NCc1ccncc1` showed a solubility (kinetic) of 42.1 µg/mL (≈ 149 µM).

For `O=[N+]([O-])c1ccc(C(O)CN2CCOCC2)cc1` (stereo not given), the kinetic solubility is greater than 37.8 µg/mL. In the case of `Cc1cc(C(=O)COC(=O)C2=COCCO2)c(C)n1-c1ccccc1` it was 14.9 µg/mL (≈ 43.6 µM); in that of `CCNC(=O)NNC(=O)C1CC(c2cccnc2)=NO1` (stereo not given), greater than 41.6 µg/mL.

With `CCOc1ccc(NC2=CC(=O)CCC2)cc1`, the solubility (kinetic) is 29.5 µg/mL (≈ 128 µM). Take `O=C(COC(=O)c1cccs1)NC1CCCC1`: the solubility (kinetic) was 36.5 µg/mL (≈ 144 µM). In the case of `CC(=O)c1ccc(NC(=O)CCNC(=O)c2ccc(Cl)cc2)cc1` it was 5.4 µg/mL (≈ 15.7 µM); in that of `O=C(O)CSCC(=O)N1CCN(Cc2ccc3c(c2)OCO3)CC1`, greater than 52.9 µg/mL. The compound `Oc1ccc(C(=S)N2CCCC2)cc1` gave a solubility (kinetic) greater than 31.1 µg/mL.
